According to ChEMBL document CHEMBL5352486, “Design, synthesis, in vitro - In vivo biological evaluation of novel thiazolopyrimidine compounds as antileishmanial agent with PTR1 inhibition” (Eur J Med Chem, 2023):
Values after ≈ are worked out from the molar mass of the structure shown. Active and inactive are the calls of the source. The calls are words filed in the database; no cut-off is given here.

Legend:
Leishmania infantum [1] = assay: Antileishmanial activity against Leishmania infantum infected in BALB/c mouse model of cutaneous leishmaniasis assessed as parasite growth in liver at 50 mg/kg/day, ID administered for 21 days; format: functional, organism-based; settings: time 21.0 day
Leishmania infantum [2] = assay: Antileishmanial activity against Leishmania infantum infected in BALB/c mouse model of visceral leishmaniasis assessed as footpad lesion development at 50 mg/kg/day, IM administered for 21 days and measured after 3 weeks by Giemsa staining based analysis (reference value: 28.94 +/- 0.59); format: functional; settings: time 21 day
Leishmania infantum [3] = assay: Antileishmanial activity against Leishmania infantum infected in BALB/c mouse model of cutaneous leishmaniasis assessed as footpad lesion development at 50 mg/kg/day, ID administered for 21 days and measured after 4 weeks by Giemsa staining based analysis (reference value: 1.90 +/- 0.03); format: functional; settings: time 21 day
Leishmania infantum [4] = assay: Antileishmanial activity against Leishmania infantum infected in BALB/c mouse model of cutaneous leishmaniasis assessed as footpad lesion development at 50 mg/kg/day, ID administered for 21 days and measured after 26 weeks by Giemsa staining based analysis (reference value: 4.91 +/- 0.01); format: functional; settings: time 21 day
Leishmania infantum [5] = assay: Antileishmanial activity against Leishmania infantum infected in BALB/c mouse model of visceral leishmaniasis assessed as parasite growth in spleen at 50 mg/kg/day, IM administered for 21 days; format: functional, organism-based; settings: time 21.0 day
Leishmania infantum [6] = assay: Antileishmanial activity against Leishmania infantum MHOM/TN/1980/IPT1 incubated for 48 hrs by XTT method; format: functional, organism-based; settings: MHOM/TN/1980/IPT1, 48 h
[7] = (§1) Cytotoxicity against mouse L929 cells by alamar blue method; format: toxicity, cell-based; settings: mouse, L929 cells
L929 = assay: as §1; format: toxicity, cell-based; settings: l929
Leishmania infantum [8] = assay: Antileishmanial activity against Leishmania infantum infected in BALB/c mouse model of cutaneous leishmaniasis assessed as footpad lesion development at 50 mg/kg/day, ID administered for 21 days and measured after 30 weeks by Giemsa staining based analysis (reference value: 4.92 +/- 0.01); format: functional; settings: time 21 day
Leishmania tropica [9] = assay: Antileishmanial activity against Leishmania tropica MHOM/A7/1974/SAF-K27 incubated for 48 hrs by XTT method; format: functional, organism-based; settings: MHOM/A7/1974/SAF-K27, 48 h
Leishmania infantum [10] = assay: Antileishmanial activity against Leishmania infantum infected in BALB/c mouse model of cutaneous leishmaniasis assessed as footpad lesion development at 50 mg/kg/day, ID administered for 21 days and measured after 10 weeks by Giemsa staining based analysis (reference value: 3.40 +/- 0.03); format: functional; settings: time 21 day
Leishmania infantum [11] = assay: Antileishmanial activity against Leishmania infantum infected in BALB/c mouse model of cutaneous leishmaniasis assessed as footpad lesion development at 50 mg/kg/day, ID administered for 21 days and measured after 12 weeks by Giemsa staining based analysis (reference value: 3.61 +/- 0.03); format: functional; settings: time 21 day
Leishmania infantum [12] = assay: Antileishmanial activity against Leishmania infantum infected in BALB/c mouse model of cutaneous leishmaniasis assessed as parasite growth in foodpad at 50 mg/kg/day, ID administered for 21 days; format: functional, organism-based; settings: time 21.0 day
Leishmania infantum [13] = assay: Antileishmanial activity against Leishmania infantum MHOM/TN/1980/IPT1 incubated for 48 hrs by Neubauer hemocytometer analysis; format: functional, organism-based; settings: MHOM/TN/1980/IPT1, 48 h
Leishmania infantum [14] = assay: Antileishmanial activity against Leishmania infantum infected in BALB/c mouse model of cutaneous leishmaniasis assessed as footpad lesion development at 50 mg/kg/day, ID administered for 21 days and measured after 8 weeks by Giemsa staining based analysis (reference value: 3.13 +/- 0.03); format: functional; settings: time 21 day
Leishmania infantum [15] = assay: Antileishmanial activity against Leishmania infantum infected in BALB/c mouse model of cutaneous leishmaniasis assessed as footpad lesion development at 50 mg/kg/day, ID administered for 21 days and measured after 16 weeks by Giemsa staining based analysis (reference value: 4.20 +/- 0.03); format: functional; settings: time 21 day
RAW264.7 = assay: (§2) Cytotoxicity against mouse RAW264.7 cells by alamar blue method; format: toxicity, cell-based; settings: raw264.7
[16] = as §2; format: toxicity, cell-based; settings: mouse, RAW264.7 cells
Leishmania tropica [17] = assay: Potency index, ratio of glucantime IC50 to test compound IC50 for antileishmanial activity against Leishmania tropica MHOM/A7/1974/SAF-K27; format: functional

| IC50 (Leishmania infantum [13]) [µg/mL] | SMILES | Activity (Leishmania infantum [1]) | Activity (Leishmania infantum [2]) | Activity (Leishmania infantum [3]) | Activity (Leishmania infantum [4]) | Activity (Leishmania infantum [5]) | IC50 (Leishmania infantum [6]) [µg/mL] | IC50 [7] [µg/mL] | log10 IC50 (µg/mL) (L929) | Activity (Leishmania infantum [8]) | IC50 (Leishmania tropica [9]) [µg/mL] | Activity (Leishmania infantum [10]) | Activity (Leishmania infantum [11]) | Activity (Leishmania infantum [12]) | Activity (Leishmania infantum [14]) | Activity (Leishmania infantum [15]) | log10 IC50 (µg/mL) (RAW264.7) | IC50 [16] [µg/mL] | Ratio IC50 (Leishmania tropica [17]) |
| --- | --- | --- | --- | --- | --- | --- | --- | --- | --- | --- | --- | --- | --- | --- | --- | --- | --- | --- | --- |
| 8.16 (≈ 19.3 µM) | CN1CCN(c2ncc3nc(NC(=O)c4ccc(Cl)c(Cl)c4)sc3n2)CC1 | Active | 28.73 | 1.88 | 4.87 | Active | 8.28 (≈ 19.6 µM) | 27.7 (≈ 65.5 µM) | 1.44 | 4.78 | 7.81 (≈ 18.4 µM) | 3.41 | 3.61 | inactive | 3.1 | 4.21 | 1.22 | 16.4 (≈ 38.8 µM) |  |
| 0.041 (≈ 0.0852 µM) | CCOC(=O)N1CCN(c2ncc3nc(NC(=O)c4ccc(Cl)c(Cl)c4)sc3n2)CC1 | Active | 28.71 | 1.88 | 4.73 | inactive | 0.042 (≈ 0.0873 µM) | 14.1 (≈ 29.3 µM) | 1.15 | 2.89 | 0.04 (≈ 0.0831 µM) | 3.39 | 3.61 | Active | 3.1 | 4.2 | 1.18 | 15 (≈ 31.2 µM) | 200 |
| 7.06 (≈ 18.6 µM) | CN(C)c1ncc2nc(NC(=O)c3ccc(Cl)c([N+](=O)[O-])c3)sc2n1 | Active | 28.71 | 1.89 | 4.7 | Active | 6.77 (≈ 17.9 µM) | 21 (≈ 55.5 µM) | 1.32 | 2.58 | 6.68 (≈ 17.6 µM) | 3.37 | 3.61 | Active | 3.09 | 3.83 | 0.94 | 8.75 (≈ 23.1 µM) |  |
